Assay results taken from patent US20230172206A1 (BASF SE, priority 2020, published 2023).

What was measured:
[1] = system: Phakopsora pachyrhizi (F129L); assay: Protective control of soybean rust on soybeans (PHAKPA P2); format: in vivo; conditions: for % PHAKPA (F129L) Disease level P2 at 4 ppm: protective P2, 4 ppm; for % PHAKPA (F129L) Disease level P2 at 16 ppm: protective P2, 16 ppm
[2] = system: Phakopsora pachyrhizi (F129L); assay: Protective control of soybean rust on soybeans (PHAKPA P6); format: in vivo; conditions: for % PHAKPA (F129L) Disease level P6 at 4 ppm: protective P6, 4 ppm; for % PHAKPA (F129L) Disease level P6 at 16 ppm: protective P6, 16 ppm

| SMILES | % PHAKPA (F129L) Disease level P2 at 4 ppm ([1]; soybean rust F129L isolate) | % PHAKPA (F129L) Disease level P2 at 16 ppm ([1]; soybean rust F129L isolate) | % PHAKPA (F129L) Disease level P6 at 4 ppm ([2]; soybean rust F129L isolate) | % PHAKPA (F129L) Disease level P6 at 16 ppm ([2]; soybean rust F129L isolate) | % PHAKPA (F129L) Disease level P2 at 4 ppm ([1]; F129L isolate) | % PHAKPA (F129L) Disease level P2 at 16 ppm ([1]; F129L isolate) | % PHAKPA (F129L) Disease level P6 at 4 ppm ([2]; F129L isolate) | % PHAKPA (F129L) Disease level P6 at 16 ppm ([2]; F129L isolate) | PHAKPA (F129L) Disease level (%) P2 at 16 ppm ([1]; protective, inoculation 2 days after spraying, 16 ppm, % diseased leaf area) | PHAKPA (F129L) Disease level (%) P6 at 16 ppm ([2]; protective, inoculation six days after spraying, 16 ppm, % diseased leaf area) |
| --- | --- | --- | --- | --- | --- | --- | --- | --- | --- | --- |
| CNC(=O)/C(=N/OC)c1cccc(C)c1CO/N=C(\CC1CC1)c1cccc(C(F)(F)F)c1 [compound 234] | 53% | 18% | 53% | 15% | – | – | – | – | – | – |
| CO/N=C(/C(=O)OC)c1cccc(C)c1CO/N=C(\C)c1cc(F)ccc1C(F)(F)F [compound 249] | 87% | 37% | 90% | 43% | – | – | – | – | – | – |
| CNC(=O)/C(=N/OC)c1cccc(C)c1CO/N=C(\C)c1cc(F)c(F)cc1C(F)(F)F [compound 410] | – | – | – | – | 9% | 0% | 35% | 1% | – | – |
| CO/N=C(/C(=O)OC)c1cccc(C)c1CO/N=C(\C)c1ccc(Cc2ccccc2)cc1OC(F)(F)F [compound 416] | – | – | – | – | 57% | 27% | 67% | 25% | – | – |
| CNC(=O)/C(=N/OC)c1cccc(C)c1CO/N=C(\C)c1c(F)cc(Br)cc1OC(F)(F)F [compound 355] | 34% | 7% | 48% | 4% | – | – | – | – | – | – |
| CNC(=O)/C(=N/OC)c1cccc(C)c1CO/N=C(\C)c1c(Cl)cccc1C(F)(F)F [compound 290] | 92% | 14% | 83% | 21% | – | – | – | – | – | – |
| CNC(=O)/C(=N/OC)c1cccc(C)c1CO/N=C(\C)c1ccc(F)c(F)c1OC(F)(F)F [compound 451] | – | – | – | – | 1% | 0% | 2% | 0% | – | – |
| CNC(=O)/C(=N/OC)c1cccc(C)c1CO/N=C(\CC(F)(F)F)c1ccccc1 [compound 380] | – | – | – | – | 53% | 5% | 60% | 12% | – | – |
| CO/N=C(/C(=O)OC)c1cccc(C)c1CO/N=C(\C)c1ccc(Oc2ccc(Cl)cc2)cc1C(F)(F)F [compound 335] | 77% | 53% | 80% | 25% | – | – | – | – | – | – |
| CNC(=O)/C(=N/OC)c1cccc(C)c1CO/N=C(\C)c1c(F)cc(F)cc1OC(F)(F)F [compound 344] | 6% | 0% | 16% | 0% | – | – | – | – | – | – |
| CNC(=O)/C(=N/OC)c1cccc(C)c1CO/N=C(\C)c1ccc(Br)cc1C(F)(F)F [compound 258] | 32% | 7% | 73% | 8% | – | – | – | – | – | – |
| CNC(=O)/C(=N/OC)c1ccccc1CO/N=C(\C)c1cc(F)ccc1F [reference compound] | – | – | – | – | – | – | – | – | 1% | 22% |
| CO/C=C(/C(=O)OC)c1cccc(C)c1CO/N=C(\C)c1c(F)cccc1C(F)(F)F [compound 390] | – | – | – | – | 22% | 0% | 18% | 2% | – | – |
| CNC(=O)/C(=N/OC)c1cccc(C)c1CO/N=C(\C)c1c(F)cccc1OC(F)(F)F [compound 325] | 24% | 4% | 22% | 1% | – | – | – | – | – | – |
| CO/N=C(/C(=O)OC)c1cccc(C)c1CO/N=C(\C)c1ccccc1C(C)C [compound 218] | 100% | 87% | 100% | 100% | – | – | – | – | – | – |
| CNC(=O)/C(=N/OC)c1cccc(C)c1CO/N=C(\C)c1ccc(OC(F)(F)F)cc1C(F)(F)F [compound 363] | 29% | 1% | 25% | 2% | – | – | – | – | – | – |
| CNC(=O)/C(=N/OC)c1cccc(C)c1CO/N=C(\C)c1ccc(Cc2ccccc2)cc1C(F)(F)F [compound 407] | – | – | – | – | 12% | 6% | 17% | 4% | – | – |
| CO/N=C(/C(=O)OC)c1cccc(C)c1CO/N=C(\C)c1cccc(C2CC2)c1 [compound 297] | 90% | 37% | 87% | 37% | – | – | – | – | – | – |
| CO/N=C(/C(=O)OC)c1cccc(C)c1CO/N=C(\C)c1c(Cl)cc(Cl)cc1OC(F)(F)F [compound 427] | – | – | – | – | 100% | 90% | 60% | 47% | – | – |
| C#Cc1cc(F)c(F)c(/C(C)=N/OCc2c(C)cccc2/C(=N\OC)C(=O)NC)c1 [compound 243] | 4% | 0% | 37% | 1% | – | – | – | – | – | – |
| CO/N=C(/C(=O)OC)c1cccc(C)c1CO/N=C(\C)c1ccc(Cl)c(Cl)c1C(F)(F)F [compound 429] | – | – | – | – | 83% | 50% | 67% | 43% | – | – |
| CO/C=C(/C(=O)OC)c1cccc(C)c1CO/N=C(\C)c1ccccc1OC(F)(F)F [compound 462] | – | – | – | – | 37% | 6% | 55% | 10% | – | – |
| CO/N=C(/C(=O)OC)c1cccc(C)c1CO/N=C(\C)c1ccccc1OC(F)(F)F [compound 236] | 97% | 77% | 97% | 100% | – | – | – | – | – | – |
| CNC(=O)/C(=N/OC)c1cccc(Br)c1CO/N=C(\C)c1ccccc1 [compound 396] | – | – | – | – | 3% | 0% | 4% | 0% | – | – |
| CO/C=C(/C(=O)OC)c1cccc(C)c1CO/N=C(\C)c1ccc(OC(F)(F)F)cc1Cl [compound 463] | – | – | – | – | 6% | 0% | 3% | 0% | – | – |
| CNC(=O)/C(=N/OC)c1cccc(C)c1CO/N=C(\C)c1ccc(F)cc1Cl [compound 262] | 63% | 1% | 47% | 4% | – | – | – | – | – | – |
| CO/C=C(/C(=O)OC)c1cccc(C)c1CO/N=C(\C)c1c(Cl)ccc(F)c1OC(F)(F)F [compound 442] | – | – | – | – | 100% | 93% | 80% | 77% | – | – |
| CNC(=O)/C(=N/OC)c1cccc(C)c1CO/N=C(\C)c1ccc(OC)cc1OC(F)(F)F [compound 337] | 9% | 0% | 13% | 1% | – | – | – | – | – | – |
| CO/N=C(/C(=O)OC)c1cccc(C)c1CO/N=C(\C)c1ccc(OC(F)(F)F)cc1C [compound 259] | 80% | 17% | 93% | 40% | – | – | – | – | – | – |
| CO/N=C(/C(=O)OC)c1cccc(C)c1CO/N=C(\C)c1c(F)cc(Br)cc1C(F)(F)F [compound 368] | 83% | 47% | 90% | 73% | – | – | – | – | – | – |
